Source: patent publication US8562946B2, “Miniaturized 62Zn/62Cu generator for high concentration clinical delivery of 62Cu kit formulation for the facile preparation of radiolabeled Cu-bis(thiosemicarbazone) compounds” (Proportional Technologies, Inc., priority 2003, dated 2013)
Like-named read-outs stand apart in the source and are kept apart here.

How the values were obtained:
[1] = octanol/water partition coefficients of Cu bis(thiosemicarbazone) complexes; format: physicochemical
[2] = cited from earlier work
[3] = ligand solubility (DMSO, water); format: physicochemical; conditions: crystalline form dissolved in DMSO
Description: Studies evaluating the compatibility of the bis(thiosemicarbazone) ligands with lyophilization based kit synthesis were conducted using H2PTSM as a model compound. The first of these studies evaluated the feasibility of ligand lyophilization and rapid reconstitution. The entire class of bis(thiosemicarbazone) compounds is very insoluble in water. Consequently, in order to prepare a principally aqueous solution for lyophilization, the crystalline form of the H2PTSM was dissolved at the maximum concentration in dimethylsulfoxide (DMSO), (200 mg/mL H2PTSM). […] To minimize the possibility of ligand precipitation, the DMSO solution was added to hot water (90° C.) during rapid stifling. This solution was then cooled to room temperature and assayed for potency using a spectrophotometer. The very small amount of DMSO in the aqueous solution is expected to sublimate along with water during lyophilization. In order to ensure maximum potency after lyophilization, an excipient (either dextrose [6.7 mg/mL], trehalose [6.7 mg/mL] or sodium acetate [5.4 mg/mL]) was added. The purpose of the excipient was to prevent the ligand from crystallizing out by maintaining dispersion in the cake formed during lyophilization. The sodium acetate performed the added function of buffering the final product to acceptable pH upon addition of 0.1-0.15 mL of ^62Zn/^62Cu generator eluted solution. […]

[4] = in humans; cited from earlier work
[5] = most animal species other than humans; cited from earlier work

CNC(=S)NN=C(C)C(C)=NNC(=S)NC [H2ATSM, diacetyl-bis(N4-methylthiosemicarbazone)]
difference in octanol/water partition coefficients ([1]; H2ATSM vs H2PTSM (Table 2)): 0.34

CCC(C=NNC(N)=S)=NNC(N)=S.[Cu] [ETS, ^62Cu ethylglyoxal bis(thiosemicarbazone)]
binding to blood plasma [2]: low reversible binding | log P ([1]; octanol/water, from measured partition coefficients P of the corresponding 67Cu-complexes): 1.35

CNC(=S)NN=CC(C)=NNC(=S)NC [H2PTSM, pyruvaldehyde bis(N4-methylthiosemicarbazone)]
maximum concentration in dimethylsulfoxide (DMSO) [3]: 200 mg/mL

CN=C([S-])N/N=C/C(C)=N/NC([S-])=NC.[Cu+2] [PTSM, Copper(II) ^62Cu pyruvaldehyde bis(N4-methylthiosemicarbazone)]
binding to blood [4]: significant binding | binding to blood [5]: low binding
